Measurements published in ChEMBL document CHEMBL3885881, “DrugMatrix”.

Species: Rattus norvegicus
Assay: DrugMatrix - Regimen: Daily Repeat
Format: toxicity, organism-based, Sprague-Dawley
Parameters: regimen Daily Repeat, gender Male, age 6-8 weeks
Conditions: in vivo, po, route oral GAVAGE, […]; for URIC ACID / ALANINE AMINOTRANSFERASE / ALBUMIN / ALKALINE PHOSPHATASE / ASPARTATE AMINOTRANSFERASE / BLOOD UREA NITROGEN / CARBON DIOXIDE / CHLORIDE / CHOLESTEROL / CREATINE PHOSPHOKINASE / CREATININE / GLUCOSE / LACTATE DEHYDROGENASE / LIPASE / PHOSPHORUS / POTASSIUM / SODIUM / TOTAL BILIRUBIN / TOTAL PROTEIN: tissue Plasma; for ABSOLUTE BASOPHIL / ABSOLUTE EOSINOPHIL / ABSOLUTE LYMPHOCYTE / ABSOLUTE MONOCYTE / ABSOLUTE SEGMENTED NEUTROPHIL / BASOPHIL / EOSINOPHIL / ERYTHROCYTE COUNT / HEMATOCRIT / HEMOGLOBIN / LEUKOCYTE COUNT / LYMPHOCYTE / MEAN CORPUSCULAR HEMOGLOBIN / MEAN CORPUSCULAR HEMOGLOBIN CONCENTRATION / MONOCYTE / NEUTROPHIL / NUCLEATED RED BLOOD CELLS / PLATELET COUNT: tissue Blood
[1] = 0.2 mg/kg, 120 h, dose level Low, time 5 day
[2] = 19 mg/kg, 72 h, dose level High, time 3 day
[3] = 19 mg/kg, 120 h, dose level High, time 5 day

With `CCOC(=O)C1=C(COCCN)NC(C)=C(C(=O)OC)C1c1ccccc1Cl` (stereo unspecified) [AMLODIPINE] the “URIC ACID” value (0.2 mg/kg, 72 h, dose level Low, time 3 day) was 1.4 mg/dL, the “ABSOLUTE BASOPHIL” value [1] was 0 CELLS/uL and the “ABSOLUTE EOSINOPHIL” value [1] was 54 CELLS/uL. The “ABSOLUTE LYMPHOCYTE” value [1] was 12693.33 CELLS/uL, the “ABSOLUTE MONOCYTE” value [1] was 54 CELLS/uL and the “ABSOLUTE SEGMENTED NEUTROPHIL” value [1] was 1132 CELLS/uL. For the same compound, the BASOPHIL [1] was 0%, the EOSINOPHIL [1] was 0.33% and the “ERYTHROCYTE COUNT” value [1] was 5.55 x10E6/uL. The HEMATOCRIT [1] was 34.53%, the HEMOGLOBIN [1] was 13.3 G/DL and the “LEUKOCYTE COUNT” value [1] was 13.93 x10E3/uL. The LYMPHOCYTE [1] was 91.33%, the “MEAN CORPUSCULAR HEMOGLOBIN” value [1] was 23.97 pg and the “MEAN CORPUSCULAR HEMOGLOBIN CONCENTRATION” value [1] was 38.5 G/DL. The MONOCYTE [1] was 0.33%, the NEUTROPHIL [1] was 8% and the “NUCLEATED RED BLOOD CELLS” value [1] was 0.33 /100WBC. The “PLATELET COUNT” value [1] was 1051.33 x10E3/uL, the “ALANINE AMINOTRANSFERASE” value [1] was 66 u/L and the ALBUMIN [1] was 4.1 G/DL. The “ALKALINE PHOSPHATASE” value [1] was 350 u/L, the “ASPARTATE AMINOTRANSFERASE” value [1] was 82 u/L and the “BLOOD UREA NITROGEN” value [1] was 16 mg/dL. For the same compound, the “CARBON DIOXIDE” value [1] was 30.33 mmol/L, the CHLORIDE [1] was 99.33 MEQ/L and the CHOLESTEROL [1] was 64.33 mg/dL. The “CREATINE PHOSPHOKINASE” value [1] was 209.67 u/L, the CREATININE [1] was 0.14 mg/dL and the GLUCOSE [1] was 156.33 mg/dL. The “LACTATE DEHYDROGENASE” value [1] was 144.67 u/L, the LIPASE [1] was 19.33 u/L and the PHOSPHORUS [1] was 10.4 mg/dL. For the same compound, the POTASSIUM [1] was 5.81 MEQ/L, the SODIUM [1] was 144.97 MEQ/L and the “TOTAL BILIRUBIN” value [1] was 0.1 mg/dL. For the same compound, the “TOTAL PROTEIN” value [1] was 5.67 G/DL, the “URIC ACID” value [1] was 0.87 mg/dL and the “ABSOLUTE BASOPHIL” value [2] was 0 CELLS/uL. The “ABSOLUTE EOSINOPHIL” value [2] was 0 CELLS/uL, the “ABSOLUTE LYMPHOCYTE” value [2] was 15467 CELLS/uL and the “ABSOLUTE MONOCYTE” value [2] was 0 CELLS/uL. For the same compound, the “ABSOLUTE SEGMENTED NEUTROPHIL” value [2] was 1533 CELLS/uL, the BASOPHIL [2] was 0% and the EOSINOPHIL [2] was 0%. The “ERYTHROCYTE COUNT” value [2] was 5.69 x10E6/uL, the HEMATOCRIT [2] was 35.43% and the HEMOGLOBIN [2] was 13.97 G/DL. For the same compound, the “LEUKOCYTE COUNT” value [2] was 17 x10E3/uL, the LYMPHOCYTE [2] was 90.67% and the “MEAN CORPUSCULAR HEMOGLOBIN” value [2] was 24.53 pg. The “MEAN CORPUSCULAR HEMOGLOBIN CONCENTRATION” value [2] was 39.4 G/DL, the MONOCYTE [2] was 0% and the NEUTROPHIL [2] was 9.33%. The “NUCLEATED RED BLOOD CELLS” value [2] was 0 /100WBC, the “PLATELET COUNT” value [2] was 1141 x10E3/uL and the “ALANINE AMINOTRANSFERASE” value [2] was 69.67 u/L. For the same compound, the ALBUMIN [2] was 3.77 G/DL, the “ALKALINE PHOSPHATASE” value [2] was 410 u/L and the “ASPARTATE AMINOTRANSFERASE” value [2] was 81.67 u/L. The “BLOOD UREA NITROGEN” value [2] was 14 mg/dL, the “CARBON DIOXIDE” value [2] was 29.67 mmol/L and the CHLORIDE [2] was 101.67 MEQ/L. The CHOLESTEROL [2] was 68 mg/dL, the “CREATINE PHOSPHOKINASE” value [2] was 240.33 u/L and the CREATININE [2] was 0.16 mg/dL. For the same compound, the GLUCOSE [2] was 161 mg/dL, the “LACTATE DEHYDROGENASE” value [2] was 103.33 u/L and the LIPASE [2] was 10 u/L. The PHOSPHORUS [2] was 10.33 mg/dL, the SODIUM [2] was 141.27 MEQ/L and the “TOTAL BILIRUBIN” value [2] was 0.23 mg/dL. For the same compound, the “TOTAL PROTEIN” value [2] was 5.6 G/DL, the “URIC ACID” value [2] was 1.43 mg/dL and the “ABSOLUTE BASOPHIL” value [3] was 0 CELLS/uL. For the same compound, the “ABSOLUTE EOSINOPHIL” value [3] was 0 CELLS/uL, the “ABSOLUTE LYMPHOCYTE” value [3] was 11777 CELLS/uL and the “ABSOLUTE MONOCYTE” value [3] was 51 CELLS/uL. The “ABSOLUTE SEGMENTED NEUTROPHIL” value [3] was 838.67 CELLS/uL, the BASOPHIL [3] was 0% and the EOSINOPHIL [3] was 0%. The “ERYTHROCYTE COUNT” value [3] was 5.63 x10E6/uL, the HEMATOCRIT [3] was 34.73% and the HEMOGLOBIN [3] was 13.7 G/DL. For the same compound, the “LEUKOCYTE COUNT” value [3] was 12.67 x10E3/uL, the LYMPHOCYTE [3] was 92.67% and the “MEAN CORPUSCULAR HEMOGLOBIN” value [3] was 24.33 pg. For the same compound, the “MEAN CORPUSCULAR HEMOGLOBIN CONCENTRATION” value [3] was 39.47 G/DL, the MONOCYTE [3] was 0.33% and the NEUTROPHIL [3] was 7%. For the same compound, the “NUCLEATED RED BLOOD CELLS” value [3] was 0 /100WBC, the “PLATELET COUNT” value [3] was 1057.67 x10E3/uL and the “ALANINE AMINOTRANSFERASE” value [3] was 95 u/L. For the same compound, the ALBUMIN [3] was 4 G/DL, the “ALKALINE PHOSPHATASE” value [3] was 359.33 u/L and the “ASPARTATE AMINOTRANSFERASE” value [3] was 100 u/L. The “BLOOD UREA NITROGEN” value [3] was 16 mg/dL, the “CARBON DIOXIDE” value [3] was 34.67 mmol/L and the CHLORIDE [3] was 101.5 MEQ/L. The CHOLESTEROL [3] was 68.33 mg/dL, the “CREATINE PHOSPHOKINASE” value [3] was 177.67 u/L and the CREATININE [3] was 0.13 mg/dL. For the same compound, the GLUCOSE [3] was 165 mg/dL, the “LACTATE DEHYDROGENASE” value [3] was 96.67 u/L and the LIPASE [3] was 12 u/L. It also gave a PHOSPHORUS [3] of 8.93 mg/dL, a POTASSIUM [3] of 5.34 MEQ/L and an SODIUM [3] of 145.05 MEQ/L. The “TOTAL BILIRUBIN” value [3] was 0.1 mg/dL, the “TOTAL PROTEIN” value [3] was 5.9 G/DL and the “URIC ACID” value [3] was 0.37 mg/dL.
